Data published in patent US20210274788A1, “PESTICIDALLY ACTIVE ISOXAZOLINE D[…] AMIDE GROUP AND AN AZETIDINE SULFONE GROUP” (SYNGENTA CROP PROTECTION AG, priority 2018, published 2021).

Legend:
Type in all cases: in vivo
[1] = system: Plutella xylostella (Diamond Back Moth); assay: Plutella xylostella (diamond back moth), treated artificial diet, eggs; conditions: 192 h, application rate 200 ppm, 8 days after infestation, read-out: effect in at least one of the two categories (mortality or growth inhibition)
Description: Plutella xylostella (Diamond Back Moth)
24-well microtiter plates with artificial diet were treated with aqueous test solutions prepared from 10,000 ppm DMSO stock solutions by pipetting. After drying, Plutella eggs were pipetted through a plastic stencil onto a gel blotting paper and the plate was closed with it. The samples were assessed for mortality and growth inhibition in comparison to untreated samples 8 days after infestation.

[2] = system: Euschistus heros (Neotropical Brown Stink Bug); assay: Euschistus heros (neotropical brown stink bug), sprayed soybean leaves, N2 nymphs; conditions: 120 h, application rate 200 ppm, 5 days after infestation, read-out: effect in at least one of the two categories (mortality or growth inhibition)
Description: Euschistus heros (Neotropical Brown Stink Bug)
Soybean leaves on agar in 24-well microtiter plates were sprayed with aqueous test solutions prepared from 10,000 ppm DMSO stock solutions. After drying the leaves were infested with N2 nymphs. The samples were assessed for mortality and growth inhibition in comparison to untreated samples 5 days after infestation.

[3] = system: Spodoptera littoralis (Egyptian Cotton Leaf Worm); assay: Spodoptera littoralis (Egyptian cotton leaf worm), cotton leaf discs, L1 larvae; conditions: foliar, 72 h, application rate 200 ppm, 3 days after infestation
Description: Spodoptera littoralis (Egyptian Cotton Leaf Worm)
Cotton leaf discs were placed onto agar in 24-well microtiter plates and sprayed with aqueous test solutions prepared from 10,000 ppm DMSO stock solutions. After drying the leaf discs were infested with five L1 larvae. The samples were assessed for mortality, anti-feeding effect, and growth inhibition in comparison to untreated samples 3 days after infestation. Control of Spodoptera littoralis by a test sample is given when at least one of the categories mortality, anti-feedant effect, and growth inhibition is higher than the untreated sample.

CCOCN(C(=O)c1ccc(C2=NO[C@@](c3cc(Cl)c(F)c(Cl)c3)(C(F)(F)F)C2)cc1C)C1CN(S(=O)(=O)C(F)F)C1 [Compound A3, 4-[(5S)-5-(3,5-dichloro-4-fluoro-phenyl)-5-(trifluoromethyl)-4H-isoxazol-3-yl]-N-[1-(difluoromethylsulfonyl)azetidin-3-yl]-N-(ethoxymethyl)-2-methyl-benzamide]
≥ 80%: percent effect (mortality or growth inhibition) at 200 ppm [1] | percent effect (mortality or growth inhibition) at 200 ppm [2] | percent control (mortality, anti-feedant effect or growth inhibition) at 200 ppm [3]
